Experimental data taken from patent US11378572B2, “Therapeutic agent for immune cell migration-caused disease and method for screening same” (ZYMEDI CO., LTD., priority 2017, dated 2022).

Columns and labels:
PAH model = test: Monocrotaline PAH model, anti-KRS antibody; assay type: in vivo, SD rats
Source text: To induce PAH in 7-week-old SD rats (Orient bio), 60 mpk of MCT (monocrotaline) was subcutaneously injected. Then rats were divided into 4 groups (5 animals in each group), and administered with either of 1 mpk of mock human IgG (Thermo Fisher Scientific, negative control), 1 mpk or 10 mpk of anti-KRS antibody (N3 antibody), 25 mpk of sildenafil (positive control) for 3 weeks. All antibodies were intravenously injected twice a week and sildenafil was orally administered everyday.
Three weeks later, rats were anesthetized with isoflurane, and blood flow and pressure were measured using an MPVS cardiovascular pressure and volume system (model name: MPVS Ultra, manufactured by Millar Instruments). Right ventricular systolic pressure (RVESP) and diastolic pressure, left ventricular systolic pressure and diastolic pressure were measured using a dedicated catheter (Mikro-Tip rat pressure catheter, manufactured by Millar Instruments). Cardiac output was measured using a perivascular blood flow probe (Transonic® Flowprobes, manufactured by […]), and experimental techniques were performed in the same manner as described in the literature: Pacher P, Nagayama T, Mukhopadhyay P, Batkai S, Kass D A. Measurement of cardiac function using pressure-volume conductance catheter technique in mice and rats. Nat Protoc 2008, 3(9):1422-34.
Collected lungs were fixed in PFA (paraformaldehyde) according to a conventional procedure, and then embedded in paraffin through water washing, dehydration, and tissue clearing processes. Lung tissue paraffin blocks of rats were cut to a thickness of […] and slides were prepared. Thereafter, staining was performed as follows. First, slides were treated with xylene 3 times for 5 minutes, followed by treatments with 100% ethanol, 95% ethanol, 90% ethanol, 70% ethanol, DW for 2 minutes in this order and washed with PBS for 5 minutes. After treatment with 0.3% H2O2, slides were washed twice with PBS for 5 minutes. After soaking in 0.01M citrate buffer and heating, slides were washed with PBS-T (0.03% tween 20). After 30 minutes blocking at room temperature (2% BSA & 2% goat serum in PBS), tissues were stained with anti-CD68 antibody (1:200, ED1 clone, Abcam) overnight at 4° C. After washing three times with PBS-T for 5 minutes, tissues were treated with polymer-HRP anti-mouse envision kit (DAKO) for 1 hour at 4° C. After washing three times with PBS-T, color was developed by treatment with DAB substrate buffer and DAB chromogen 20. Thus stained tissues were treated with Mayer's hematoxylin (Sigma) for 1 minute, and then treated twice for 2 minutes in the order of 70% ethanol, 90% ethanol, 95% ethanol, and 100% ethanol. Finally, xylene was treated three times for 5 minutes and observed with an optical microscope.

KRS = target: T1, KRS (Mus musculus, UniProt Q99MN1); test: KRS level in plasma membrane/cytosol fractions by western blot (KRS translocation to the plasma membrane); assay type: cell-based; conditions: RAW 264.7 cells, LN421 l g/ml, 0, 12, 24 hour
T1 construct: KRS, which is expressed in monocytes/macrophages and usually present in the cytoplasmic domain, translocates to the plasma membrane by LN421 treatment; endogenous in cells; host or cells: RAW 264.7
Method: After dispensing RAW 264.7 cells (2×10^6 cells) in 100 mm dish and incubating for 18 hours, cells were treated with LN421 l g/ml in serum free DMEM media and harvested at 0 hour, 12 hour, 24 hour. Proteins of RAW 264.7 cells were separated into the cytosol and membrane fractions using ProteoExtract Subcellular Proteome Extraction Kit (Calbiotech, cat #539790). Obtained proteins were electrophoresed and transferred to PVDF membrane (Milipore) and blocked with 3% skim milk. KRS was then detected by western blot. Specifically, KRS polyclonal antibody (rabbit, Neomics, Co. Ltd. #NMS-01-0005) was added and reacted for 1 hour. Unbound antibody was removed and the membrane was added and reacted with anti-rabbit secondary antibody (ThermoFisher Scientific, #31460). After reacting with the secondary antibody, films were exposed in the dark room using ECL reagent as a substrate. […]
First, in order to determine whether various KRS inhibitor candidates could exert inhibitory effect on the KRS translocation to the plasma membrane, RAW 264.7 cells (2×10^6 cells) were dispensed in 100 mm dishes and incubated for 18 hours, followed by treatment with laminin 421 1 μg/ml in serum free DMEM, and 100 nM of each of various KRS inhibitor candidates, and cells were further incubated for 12 hours. […] Afterwards, KRS was detected by western blot, and the specific method were as described in Example 3. […]

RAW 264.7 cells = test: Transwell migration assay of monocytes/macrophages; assay type: cell-based
Method: Among several extracellular matrix (ECM), it was examined which ECM promotes the migration and infiltration of immune cells, typically monocytes/macrophages. A transwell migration assay was performed using collagen (Col), fibronectin (FN) and laminin (LN) as extracellular matrices, and detailed methods were as follows. Transwells (Corning, #3421-5 mm) were coated with gelatin (0.5 mg/ml) and RAW 264.7 cells (1×10^5 cells/well) were seeded into the top chambers. Serum free DMEM (500 μl) containing 10 μg/ml of laminin (laminin mixture, Biolamina), fibronectin or collagen, respectively, was placed in the bottom chambers. After 24 hours, cells were fixed with 70% methanol for 30 minutes and stained with 50% hematoxylin for 30 minutes. After removing non-migrating cells from the top of the membrane with a cotton swab, the membrane was taken and mounted on the slide. Migrating cells on the underside of the membrane were observed and quantified under a high magnification microscope.
Effect of laminin subtypes on the immune cell migration and infiltration was evaluated. A transwell migration assay was performed in the same manner as in Example 1 using LN111, LN211, LN221, LN411, LN421, LN511, and LN521 as various laminin subtype proteins (purchased from Biolamina). Specific sequences of laminin subtypes are referred to α4 chain of SEQ ID NO:4, α2 chain of SEQ ID NO: 10, α5 chain of SEQ ID NO: 11, β2 chain of SEQ ID NO:6, β1 chain of SEQ ID NO: 12, γ1 chain of SEQ ID NO: 8. according to the chain forming each laminin subtype,
For each of the transformed macrophages, a transwell migration assay was performed in the same manner as in Example 1 using 1 μg/ml of laminin 421.
Thus identified agents as inhibiting the translocation of KRS to the plasma membrane was added to the LN421-treated macrophages to perform a transwell migration assay. […] Migrating cells on the underside of the membrane were observed and quantified under a high magnification microscope. […]

[1] = MCT + sildenafil 25 mpk oral everyday, 3 weeks (n = 5)

T1 sequence (Q99MN1 whole entry, the tested form may be a part): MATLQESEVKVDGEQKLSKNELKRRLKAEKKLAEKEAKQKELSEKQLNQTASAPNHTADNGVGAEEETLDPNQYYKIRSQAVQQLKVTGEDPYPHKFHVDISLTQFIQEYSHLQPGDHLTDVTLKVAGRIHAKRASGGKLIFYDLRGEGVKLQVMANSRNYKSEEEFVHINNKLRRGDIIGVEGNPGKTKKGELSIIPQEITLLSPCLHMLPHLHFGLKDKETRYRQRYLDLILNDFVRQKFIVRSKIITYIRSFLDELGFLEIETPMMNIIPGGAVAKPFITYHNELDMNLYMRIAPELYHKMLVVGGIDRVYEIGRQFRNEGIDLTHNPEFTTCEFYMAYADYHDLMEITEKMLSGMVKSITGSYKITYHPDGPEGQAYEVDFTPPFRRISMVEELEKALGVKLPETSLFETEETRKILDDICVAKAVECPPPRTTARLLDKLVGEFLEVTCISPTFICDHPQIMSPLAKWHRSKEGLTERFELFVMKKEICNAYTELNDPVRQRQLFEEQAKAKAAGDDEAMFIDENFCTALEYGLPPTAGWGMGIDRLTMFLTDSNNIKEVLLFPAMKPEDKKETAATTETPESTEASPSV

CCCc1nn(C)c2c(=O)[nH]c(-c3cc(S(=O)(=O)N4CCN(C)CC4)ccc3OCC)nc12 [sildenafil]
CO (PAH model; MCT + sildenafil 25 mpk oral everyday, 3 weeks (n = 4)): 49.6 ± 17.7 mL/min
LVEDP (PAH model; [1]): 3.6 ± 2.3 mmHg
LVESP (PAH model; [1]): 83.2 ± 4.7 mmHg
RVEDP (PAH model; [1]): 2.6 ± 1.3 mmHg
RVESP (PAH model; [1]): 48.4 ± 9.6 mmHg
body weight, absolute change (PAH model; MCT + sildenafil (n = 5)): 104.1 ± 26.4 g
body weight, relative change (PAH model; MCT + sildenafil (n = 5)): 49.8 ± 10.5%
findings of D-shaped left ventricle (echocardiography) (PAH model; number of animals with finding): three mice

LN421: laminin subtype α4β2γ1, purchased from Biolamina [reference compound]
level of KRS detection in the plasma membrane fractions (KRS): increased
migration of monocytes/macrophages among laminin subtypes (RAW 264.7 cells; LN111, LN211, LN221, LN411, LN421, LN511, LN521 compared): specifically reacted

laminin [reference compound]
migration of monocytes/macrophages among extracellular matrices (RAW 264.7 cells; 10 μg/ml in bottom chamber, 24 hours, versus collagen, fibronectin): most strongly promoted
